± gives the standard deviation of the averaged measurements.
Columns and labels:
Assay in all cases: level (log10 ratio to DMSO vehicle control); higher = higher biomarker level / cell amount than vehicle control
[1] = compound: C=CC(=O)OCC(F)(F)C(F)(F)C(F)(F)COC(=O)C=C [1H,1H,5H,5H-Perfluoro-1,5-pentanediol diacrylate]; conditions: 6700 nM; in DMSO
Method: (§1)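 BioMAP Diversity Plus panel of 12 human primary cell co-culture systems (3C, 4H, LPS, SAg, BT, BF4T, BE3C, CASM3C, HDF3CGF, KF3CT, MyoF, Mphg). Compounds were added 1 h before stimulation and left for 24 h (MyoF 48 h; BT 72 h for soluble read-outs or 6 d for IgG). Biomarkers were read by ELISA, cytotoxicity by SRB, PBMC viability and proliferation by Alamar Blue. Each well value was divided by the mean of 8 DMSO control wells on the same plate and log10 transformed; duplicate blinded samples were tested at 4 concentrations.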

[2] = compound: O=C(O)C(F)(F)C(F)(F)C(F)(F)C(F)(F)C(F)(F)C(F)(F)C(F)(F)C(F)(F)C(F)(F)C(F)F [11-H-Perfluoroundecanoic acid]; conditions: in DMSO
Method: as §1

[3] = compound: NS(=O)(=O)C(F)(F)C(F)(F)C(F)(F)C(F)(F)C(F)(F)C(F)(F)F [Perfluorohexanesulfonamide]; conditions: in DMSO
Method: as §1

Hexafluoroamylene glycol = compound: OCC(F)(F)C(F)(F)C(F)(F)CO [Hexafluoroamylene glycol]; conditions: in DMSO
Method: as §1

[4] = compound: FC(F)(F)C(F)(F)C(F)(F)C(F)(F)C(F)(F)C(F)(F)C(F)(F)I [1-Iodopentadecafluoroheptane]; conditions: in DMSO
Method: as §1

[5] = compound: FC(F)(F)C(F)(F)C(F)(F)CC1CO1 [1H,1H-Heptafluorobutyl epoxide]; conditions: in DMSO
Method: as §1

[6] = compound: C=C(C)C(=O)OCCC(F)(F)C(F)(F)C(F)(F)C(F)(F)C(F)(F)C(F)(F)F [6:2 Fluorotelomer methacrylate]; conditions: in DMSO
Method: as §1

[7] = compound: O=S(=O)(Cl)C(F)(F)C(F)(F)C(F)(F)C(F)(F)C(F)(F)C(F)(F)C(F)(F)C(F)(F)F [Perfluoro-1-octanesulfonyl chloride]; conditions: in DMSO
Method: as §1

Test System | level (log10) [1] | level (log10) ([2]; 6700 nM) | level (log10) ([2]; 20000 nM) | level (log10) ([3]; 6700 nM) | level (log10) ([3]; 20000 nM) | level (log10) ([3]; 60000 nM) | level (log10) (Hexafluoroamylene glycol; 6700 nM) | level (log10) (Hexafluoroamylene glycol; 20000 nM) | level (log10) (Hexafluoroamylene glycol; 60000 nM) | level (log10) ([4]; 6700 nM) | level (log10) ([4]; 20000 nM) | level (log10) ([5]; 6700 nM) | level (log10) ([5]; 20000 nM) | level (log10) ([5]; 60000 nM) | level (log10) ([6]; 6700 nM) | level (log10) ([6]; 20000 nM) | level (log10) ([6]; 60000 nM) | level (log10) ([7]; 6700 nM) | level (log10) ([7]; 20000 nM) | level (log10) ([7]; 60000 nM)
LPS:CD106/VCAM-1 | -0.118 ± 0.071 | 0.0025 ± 0.019 | -0.002 ± 0.02 | -0.029 ± 0.047 | -0.0315 ± 0.049 | -0.097 ± 0.016 | -0.0215 ± 0.054 | -0.03 ± 0.064 | -0.0055 ± 0.059 | 0.0045 ± 0.016 | -0.005 ± 0.0071 | 0.01 ± 0.017 | 0.0125 ± 0.0064 | 0.002 ± 0.0071 | 0.0165 ± 0.0092 | -0.0025 ± 0.021 | 0.0055 ± 0.018 | -0.018 ± 0.0071 | -0.0065 ± 0.0092 | -0.022 ± 0.02
BE3C:CD54/ICAM-1 | -0.018 ± 0.014 | -0.0105 ± 0.0021 | -0.35 ± 0.031 | -0.0105 ± 0.025 | 0.003 ± 0.0028 | 0.017 ± 0.013 | 0.007 ± 0.016 | 0.002 ± 0.0057 | -0.001 ± 0.0014 | -0.0125 ± 0.026 | 0.006 ± 0.013 | 0.001 ± 0.0028 | -0.013 ± 0.034 | 0.0055 ± 0.015 | -0.0055 ± 0.0064 | -0.0085 ± 0.011 | 0.015 ± 0.0099 | -0.0045 ± 0.0021 | 0.036 ± 0.0071 | -0.69 ± 0.11
BF4T:uPA | -0.019 ± 0.013 | -0.0095 ± 0.036 | -0.051 ± 0.038 | -0.003 ± 0.0042 | 0.0005 ± 0.0035 | -0.01 ± 0.011 | -0.0065 ± 0.021 | -0.006 ± 0.014 | 0.004 ± 0.0057 | -0.0365 ± 0.016 | -0.026 ± 0.016 | -0.0065 ± 0.013 | 0.0025 ± 0.022 | -0.028 ± 0.034 | -0.006 ± 0.0057 | 0.0005 ± 0.026 | 0.006 ± 0.011 | -0.028 ± 0.03 | -0.025 ± 0.025 | -0.113 ± 0.046
BE3C:CXCL8/IL-8 | -0.0515 ± 0.04 | -0.0885 ± 0.016 | 0.0475 ± 0.05 | -0.0795 ± 0.044 | -0.161 ± 0.0078 | -0.3 ± 0.039 | -0.001 ± 0.031 | -0.003 ± 0.025 | 0.013 ± 0.034 | -0.0175 ± 0.0078 | -0.007 ± 0.0057 | 0.01 ± 0.062 | 0.0235 ± 0.029 | 0.0505 ± 0.081 | 0.05 ± 0.086 | 0.0325 ± 0.046 | 0.043 ± 0.072 | 0.0065 ± 0.005 | -0.0605 ± 0.0021 | -0.311 ± 0.17
LPS:sTNF-alpha | -0.008 ± 0.0057 | 0.0065 ± 0.0092 | 0.0135 ± 0.0035 | -0.0515 ± 0.022 | -0.02 ± 0.041 | -0.0325 ± 0.079 | 0.0025 ± 0.012 | -0.009 ± 0.014 | -0.001 ± 0.0099 | 0.0115 ± 0.018 | 0.0025 ± 0.0092 | -0.003 ± 0.014 | -0.0055 ± 0.012 | -0.014 ± 0.0085 | 0.031 ± 0.028 | 0.0415 ± 0.021 | 0.0405 ± 0.022 | -0.0175 ± 0.044 | -0.002 ± 0.045 | -0.026 ± 0.052
BF4T:CCL2/MCP-1 | -0.073 ± 0.0099 | -0.162 ± 0.02 | -0.2635 ± 0.0021 | -0.0415 ± 0.018 | -0.072 ± 0.0085 | -0.107 ± 0.0042 | 0.013 ± 0.013 | 0.0145 ± 0.016 | 0.039 ± 0.045 | -0.0105 ± 0.0092 | 0.011 ± 0.02 | 0.005 ± 0.0014 | -0.0095 ± 0.0035 | 0.014 ± 0.0042 | 0.0165 ± 0.005 | -0.012 ± 0.014 | 0.002 ± 0.021 | 0.038 ± 0.028 | -0.0205 ± 0.021 | -0.378 ± 0.021
BF4T:IL-1alpha | 0.0055 ± 0.036 | 0.025 ± 0.027 | -0.0955 ± 0.026 | -0.006 ± 0.0042 | -0.008 ± 0.017 | -0.0675 ± 0.016 | -0.001 ± 0.014 | -0.0175 ± 0.0035 | 0.0075 ± 0.029 | -0.0035 ± 0.0035 | 0.003 ± 0.0014 | 0.0165 ± 0.015 | 0.0095 ± 0.016 | 0.0355 ± 0.053 | -0.025 ± 0.041 | -0.0245 ± 0.025 | -0.0125 ± 0.018 | -0.0015 ± 0.0092 | -0.0045 ± 0.005 | -0.0925 ± 0.005
BF4T:MMP-9 | -0.02 ± 0.021 | -0.042 ± 0.047 | -0.154 ± 0.021 | 0.0205 ± 0.021 | 0.011 ± 0.0085 | -0.003 ± 0.0085 | -0.0045 ± 0.011 | -0.0165 ± 0.0035 | 0.0105 ± 0.035 | -0.0345 ± 0.063 | -0.019 ± 0.013 | 0.0005 ± 0.011 | -0.0055 ± 0.022 | -0.008 ± 0.0085 | -0.0295 ± 0.096 | -0.033 ± 0.028 | -0.028 ± 0.062 | 0.0055 ± 0.0078 | 0.0065 ± 0.021 | -0.314 ± 0.083
SAg:CCL2/MCP-1 | -0.13 ± 0.04 | -0.0105 ± 0.022 | -0.0125 ± 0.0035 | -0.0065 ± 0.00071 | -0.0185 ± 0.0035 | -0.085 ± 0.027 | -0.012 | -0.002 ± 0.011 | -0.016 ± 0.0099 | 0.02 ± 0.05 | 0.0105 ± 0.033 | 0.0055 ± 0.0035 | -0.009 ± 0.0071 | -0.025 ± 0.017 | -0.001 ± 0.058 | 0 ± 0.025 | 0.0135 ± 0.005 | -0.028 ± 0.017 | 0.0005 ± 0.025 | 0.041 ± 0.0028
LPS:CD62E/E-Selectin | -0.0265 ± 0.022 | 0.0035 ± 0.019 | 0.0095 ± 0.025 | -0.002 ± 0.0099 | -0.0295 ± 0.012 | -0.0815 ± 0.011 | 0.023 ± 0.024 | -0.007 ± 0.023 | -0.0125 ± 0.0064 | -0.0155 ± 0.005 | -0.002 ± 0.0071 | 0.0105 ± 0.012 | -0.009 ± 0.016 | 0.0035 ± 0.036 | 0.0095 ± 0.018 | 0.003 ± 0.018 | 0.0335 ± 0.0064 | -0.0105 ± 0.0078 | -0.0095 ± 0.00071 | 0.0585 ± 0.016
BE3C:CXCL10/IP-10 | -0.0215 ± 0.0035 | -0.141 ± 0.012 | -0.874 ± 0.014 | -0.016 ± 0.04 | -0.086 ± 0.042 | -0.235 ± 0.047 | -0.009 ± 0.014 | -0.0115 ± 0.011 | -0.007 ± 0.02 | 0.01 ± 0.02 | 0.0195 ± 0.035 | -0.013 ± 0.0071 | -0.0065 ± 0.0092 | -0.012 ± 0.0042 | 0.0275 ± 0.091 | 0.021 ± 0.068 | 0.034 ± 0.078 | -0.0275 ± 0.0064 | -0.165 ± 0.033 | -0.927 ± 0.04
BF4T:CCL26/Eotaxin-3 | -0.04 ± 0.0028 | -0.122 ± 0.014 | -0.234 ± 0.018 | -0.017 ± 0.018 | -0.064 ± 0.0028 | -0.151 ± 0.012 | 0.003 ± 0.051 | 0.002 ± 0.0071 | 0.0395 ± 0.042 | -0.04 ± 0.048 | -0.0305 ± 0.042 | -0.001 ± 0.013 | 0.0095 ± 0.0035 | 0.01 ± 0.011 | 0.0285 ± 0.025 | -0.001 ± 0.11 | 0.041 ± 0.055 | -0.0515 ± 0.0064 | -0.142 ± 0.011 | -0.326 ± 0.051
BF4T:CD106/VCAM-1 | -0.0685 ± 0.026 | -0.062 ± 0.0057 | -0.148 ± 0.079 | -0.0295 ± 0.022 | -0.104 ± 0.0099 | -0.198 ± 0.013 | -0.0015 ± 0.023 | 0.0045 ± 0.023 | 0.034 ± 0.025 | -0.005 ± 0.011 | -0.031 ± 0.0028 | -0.0055 ± 0.015 | -0.015 ± 0.017 | -0.021 ± 0.0071 | 0.008 ± 0.079 | 0.039 | -0.0215 ± 0.028 | -0.0255 ± 0.029 | -0.04 ± 0.028 | -0.126 ± 0.088
SAg:CXCL9/MIG | 0.0025 ± 0.0078 | -0.005 ± 0.011 | -0.011 | -0.0135 ± 0.018 | -0.004 ± 0.0071 | 0.0105 ± 0.0064 | -0.0015 ± 0.011 | -0.016 ± 0.016 | -0.003 ± 0.0071 | 0.006 ± 0.0071 | 0.02 ± 0.0042 | -0.0155 ± 0.0078 | -0.0165 ± 0.015 | -0.0065 ± 0.018 | 0.007 ± 0.023 | 0.0085 ± 0.011 | 0.012 ± 0.025 | -0.007 ± 0.0071 | -0.018 ± 0.0028 | 0.0075 ± 0.021
